# Test: CaCO3 scale inhibition at pH 9 and 300X calcite saturation (% inhibition by calcium titration, Schwarzenbach method)
# Description: PROCEDURE: Scaling water containing 250 mg/L of CO (-2)/(3) [formula] and 600 mg/L of alkalinity at a pH of 9.0 and 55°C was used to evaluate scale inhibition performance of test solutions over a 24 hr period. Test solutions were analyzed by withdrawing 10 g of test solution and adding it to the appropriate container through a 0.2 µ filter, titrating for calcium, and calculating % inhibition by the Schwarzenbach method.
smiles,measurement,setting,value
"O=P(O)(O)CN(CCO)CP(=O)(O)O [Sample No. 1, N-(2-hydroxyethyl)-N-bis(methylenephosphonic acid)]",scale inhibition,"10% Excess Ca/Alk, 25ppm",67.8%
same,scale inhibition,"10% Excess Ca/Alk, 50ppm",85.6%
same,scale inhibition,"60°C, 50ppm",82.6%
same,scale inhibition,"pH 9, 300X CaCO₃, 50ppm, 24hrs",90.8%
same,scale inhibition,"pH 9, 300X CaCO₃, 50ppm, 4 days",87.5%

# — patent publication EP0564248A1, “N-(2-hydroxyethyl)-N-bis(methylenephosphonic acid) and corresponding N-oxide thereof for high pH scale control” (Calgon Corporation, priority 1992, dated 1993)
